Format in all cases: biochemical
For assay [1], the target named is T1, human JAK1 (a.a. 837-1142) (Homo sapiens, UniProt P23458).
T1 construct: human JAK1 (a.a. 837-1142); His tag (N); made in house; host or cells: insect cells (baculovirus)
As to the kind of experiment: In vitro JAK kinase assay (HTRF, phosphorylation of a biotinylated peptide), JAK1. Conditions: read-out: JAK1 IC50. In a few lines: (§1)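 Kinase reactions ran at room temperature for 1 h with ATP matched per isoform (JAK1 90 μM, JAK2 30 μM, JAK3 3 μM). After an EDTA stop, the phosphorylated biotin-peptide was read by HTRF using Eu-Py20 and SA-APC after 40 min binding.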
Background: In TR-FRET formats the signal depends on donor and acceptor labels being close together.

For assay [2], the target named is T2, human JAK2 (a.a. 828-1132) (Homo sapiens, UniProt O60674).
T2 construct: JAK2 (a.a. 828-1132); His tag (N); made in house; host or cells: insect cells (baculovirus)
The assay is described as follows: In vitro JAK kinase assay (HTRF, phosphorylation of a biotinylated peptide), JAK2. A digest of the protocol:
as §1

Assay [3] addresses T3, human JAK3 (a.a. 781-1124) (Homo sapiens, UniProt P52333).
T3 construct: JAK3 (a.a. 781-1124); His tag (N); made in house; host or cells: insect cells (baculovirus)
As to the kind of experiment: In vitro JAK kinase assay (HTRF, phosphorylation of a biotinylated peptide), JAK3. In a few lines: as §1

The target of another assay is TYK2 (Homo sapiens, UniProt P29597). The assay is described as follows: TYK2 kinase inhibition (Table A1).
The target of assay [4] is T4, Recombinant Human Anaplastic Lymphoma Kinase (Homo sapiens, UniProt Q9UM73).
T4 construct: purchased Invitrogen, Carlsbad, Calif
As to the kind of experiment: ALK HTRF kinase assay. A digest of the protocol: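 Recombinant human ALK phosphorylated a biotinylated synthetic peptide. Phosphotyrosine was detected by TR-FRET between a Eu-labelled anti-phosphotyrosine antibody and streptavidin-allophycocyanin. IC50 values came from fitting signal against inhibitor concentration to a four-parameter logistic equation with variable Hill slope.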

Setting [5] is: method AA1 (90 μM ATP) or AA2 (1000 μM ATP), not stated per value.
Where [6] appears, read: method AA1 (30 μM ATP) or AA2 (1000 μM ATP), not stated per value.
Where [7] appears, read: method AA1 (3 μM ATP) or AA2 (1000 μM ATP), not stated per value.
[8] abbreviates: compound at 500 nM or 1 mM, 90 μM ATP.
[9] abbreviates: Table B1, cells without percent sign.

Molecules are shown by their SMILES. pIC50: −log10 of the molar value. Where a name gives a salt, the structure may show the parent alone. Read-outs that look alike come from different tables or passages of the source. Bounds are passed on as bounds.

T4 sequence (Q9UM73 19-1620): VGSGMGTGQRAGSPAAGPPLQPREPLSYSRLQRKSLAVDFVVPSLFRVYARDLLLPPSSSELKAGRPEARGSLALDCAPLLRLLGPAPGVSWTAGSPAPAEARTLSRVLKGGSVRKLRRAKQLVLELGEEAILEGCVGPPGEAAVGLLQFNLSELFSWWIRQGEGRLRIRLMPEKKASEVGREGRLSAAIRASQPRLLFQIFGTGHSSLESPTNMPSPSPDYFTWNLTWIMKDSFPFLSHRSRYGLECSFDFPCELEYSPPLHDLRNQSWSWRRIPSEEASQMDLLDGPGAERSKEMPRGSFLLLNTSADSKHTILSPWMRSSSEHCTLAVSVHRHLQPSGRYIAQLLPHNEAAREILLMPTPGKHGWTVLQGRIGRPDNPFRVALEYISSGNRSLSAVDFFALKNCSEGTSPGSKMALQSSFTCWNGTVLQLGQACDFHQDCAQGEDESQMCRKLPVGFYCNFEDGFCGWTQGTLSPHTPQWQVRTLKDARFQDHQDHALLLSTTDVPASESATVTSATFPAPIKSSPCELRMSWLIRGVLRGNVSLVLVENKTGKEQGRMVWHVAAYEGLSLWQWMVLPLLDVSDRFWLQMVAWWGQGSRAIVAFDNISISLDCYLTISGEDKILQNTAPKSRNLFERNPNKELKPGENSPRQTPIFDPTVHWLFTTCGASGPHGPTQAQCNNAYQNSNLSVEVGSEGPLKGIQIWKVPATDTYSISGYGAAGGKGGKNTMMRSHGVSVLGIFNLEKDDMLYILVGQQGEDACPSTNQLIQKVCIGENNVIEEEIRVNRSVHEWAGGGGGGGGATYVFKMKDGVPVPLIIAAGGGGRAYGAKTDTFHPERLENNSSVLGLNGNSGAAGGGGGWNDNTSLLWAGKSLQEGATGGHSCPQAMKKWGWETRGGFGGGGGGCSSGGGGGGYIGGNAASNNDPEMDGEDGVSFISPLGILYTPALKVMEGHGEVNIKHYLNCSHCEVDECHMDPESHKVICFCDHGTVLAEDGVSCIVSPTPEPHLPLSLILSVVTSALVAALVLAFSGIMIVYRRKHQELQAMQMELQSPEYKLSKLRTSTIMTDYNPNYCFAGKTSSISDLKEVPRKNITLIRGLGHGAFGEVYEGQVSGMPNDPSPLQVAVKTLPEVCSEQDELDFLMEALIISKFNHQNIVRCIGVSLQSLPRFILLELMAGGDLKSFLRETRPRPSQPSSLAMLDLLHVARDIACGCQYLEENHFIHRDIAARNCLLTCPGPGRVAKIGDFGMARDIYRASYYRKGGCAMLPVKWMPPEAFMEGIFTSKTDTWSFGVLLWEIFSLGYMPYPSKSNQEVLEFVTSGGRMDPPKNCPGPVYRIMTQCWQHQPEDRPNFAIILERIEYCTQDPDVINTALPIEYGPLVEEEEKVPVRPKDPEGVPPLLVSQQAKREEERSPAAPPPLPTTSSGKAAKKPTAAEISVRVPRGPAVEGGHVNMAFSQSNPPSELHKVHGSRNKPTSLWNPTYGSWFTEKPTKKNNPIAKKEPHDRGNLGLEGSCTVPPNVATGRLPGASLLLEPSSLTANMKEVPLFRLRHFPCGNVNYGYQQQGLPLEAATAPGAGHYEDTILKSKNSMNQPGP
T2 sequence (O60674 828-1132): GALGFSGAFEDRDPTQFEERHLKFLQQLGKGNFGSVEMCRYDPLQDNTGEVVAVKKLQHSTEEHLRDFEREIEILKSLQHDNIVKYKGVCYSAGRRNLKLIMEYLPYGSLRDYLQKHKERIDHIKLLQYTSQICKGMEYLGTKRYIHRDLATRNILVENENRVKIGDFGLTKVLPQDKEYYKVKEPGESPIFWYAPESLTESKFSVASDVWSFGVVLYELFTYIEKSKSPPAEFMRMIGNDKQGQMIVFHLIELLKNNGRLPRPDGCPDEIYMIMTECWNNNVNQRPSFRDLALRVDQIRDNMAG
T1 sequence (P23458 849-1154): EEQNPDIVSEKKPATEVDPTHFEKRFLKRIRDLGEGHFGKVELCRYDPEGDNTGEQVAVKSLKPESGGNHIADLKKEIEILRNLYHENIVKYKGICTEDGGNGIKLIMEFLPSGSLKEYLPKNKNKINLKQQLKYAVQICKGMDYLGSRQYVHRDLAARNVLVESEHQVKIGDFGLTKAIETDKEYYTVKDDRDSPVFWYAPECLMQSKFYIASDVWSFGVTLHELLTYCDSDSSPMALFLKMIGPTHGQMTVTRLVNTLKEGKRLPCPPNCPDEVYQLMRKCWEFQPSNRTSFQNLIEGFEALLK
T3 sequence (P52333 781-1124): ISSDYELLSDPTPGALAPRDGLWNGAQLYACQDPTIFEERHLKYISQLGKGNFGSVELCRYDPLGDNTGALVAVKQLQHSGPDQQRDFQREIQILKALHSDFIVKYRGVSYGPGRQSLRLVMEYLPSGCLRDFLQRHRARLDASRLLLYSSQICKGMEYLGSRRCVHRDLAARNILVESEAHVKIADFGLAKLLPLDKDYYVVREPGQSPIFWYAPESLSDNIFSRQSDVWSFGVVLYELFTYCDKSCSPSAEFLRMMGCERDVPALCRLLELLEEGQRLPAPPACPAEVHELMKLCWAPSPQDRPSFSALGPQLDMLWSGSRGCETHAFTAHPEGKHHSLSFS
Chain of TYK2 (P29597 whole entry): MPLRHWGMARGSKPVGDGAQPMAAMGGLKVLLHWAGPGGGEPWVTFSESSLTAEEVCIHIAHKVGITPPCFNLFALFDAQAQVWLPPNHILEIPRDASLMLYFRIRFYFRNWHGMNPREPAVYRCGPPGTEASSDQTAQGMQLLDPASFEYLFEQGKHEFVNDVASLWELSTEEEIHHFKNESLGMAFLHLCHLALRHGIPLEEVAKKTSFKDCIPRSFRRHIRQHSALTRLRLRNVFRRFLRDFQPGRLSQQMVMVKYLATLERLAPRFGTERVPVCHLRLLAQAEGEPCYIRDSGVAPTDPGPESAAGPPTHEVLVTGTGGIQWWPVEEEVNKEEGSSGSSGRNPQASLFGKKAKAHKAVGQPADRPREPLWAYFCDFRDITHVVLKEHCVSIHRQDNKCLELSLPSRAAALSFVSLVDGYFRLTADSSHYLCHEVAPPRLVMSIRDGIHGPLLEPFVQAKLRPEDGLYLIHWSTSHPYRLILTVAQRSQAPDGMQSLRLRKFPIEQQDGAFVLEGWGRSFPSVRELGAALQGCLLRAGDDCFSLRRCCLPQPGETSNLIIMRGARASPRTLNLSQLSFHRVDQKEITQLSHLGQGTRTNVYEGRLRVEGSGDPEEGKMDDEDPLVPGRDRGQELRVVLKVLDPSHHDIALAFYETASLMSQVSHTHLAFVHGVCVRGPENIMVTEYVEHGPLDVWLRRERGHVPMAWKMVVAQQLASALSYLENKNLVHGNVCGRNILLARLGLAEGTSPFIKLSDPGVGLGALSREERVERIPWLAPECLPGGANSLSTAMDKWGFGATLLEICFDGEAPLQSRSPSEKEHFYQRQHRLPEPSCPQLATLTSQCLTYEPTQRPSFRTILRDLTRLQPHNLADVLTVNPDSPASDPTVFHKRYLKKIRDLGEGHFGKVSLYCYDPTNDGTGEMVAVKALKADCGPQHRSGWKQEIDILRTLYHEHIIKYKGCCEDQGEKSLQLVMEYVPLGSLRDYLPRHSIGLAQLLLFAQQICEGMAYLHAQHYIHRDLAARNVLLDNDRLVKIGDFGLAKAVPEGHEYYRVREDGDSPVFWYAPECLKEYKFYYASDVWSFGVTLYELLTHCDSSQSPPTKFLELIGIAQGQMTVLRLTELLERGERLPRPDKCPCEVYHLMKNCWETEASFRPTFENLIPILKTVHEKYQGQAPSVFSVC

One may read the pIC50 as the negative decadic logarithm of the IC50, by convention in mol/L. For `Clc1cnc2nc1Nc1cccc(c1)CNCc1cccc(c1)N2` [Example D73, 6-Chloro-2,4,8,15,23-pentaazatetracyclo[15.3.1.1(3,7).1(9,13)]tricosa-1(21),3(23),4,6,9(22),10,12,17,19-nonaene bis(trifluoroacetate)], the pIC50 in assay [1] (Table D1) was 7.08; in assay [2] (Table D1), 6.97; in assay [3] (Table D1) it was 7.17; at TYK2 (Table D1) it was 6.72; in assay [4] (Table D1, 90 μM ATP), 5.88.

For `N#Cc1ccccc1S(=O)(=O)Nc1cc2cc(c1)Nc1nc(ncc1Cl)Nc1cccc(c1)CC2` [Example B216, N-[6-Chloro-2,4,8,22-tetraazatetracyclo[14.3.1.1(3,7).1(9,13)]docosa-1(20),3(22),4,6,9(21),10,12,16,18-nonaen-11-yl]-2-cyanobenzenesulfonamide trifluoroacetate], the negative-log IC50 (pIC50) is 7.32 in assay [1] (Table B1), 7.54 in assay [2] (Table B1), 6.78 in assay [3] (Table B1) and 7.18 on TYK2 (Table B1). Besides, the “ALK % of inhibition at a concentration of 500 nM or 1 mM” value (“ALK % of inhibition” below) in assay [4] (compound at a concentration of 500 nM or 1 mM (not specified), cells shown as percentage) is reported as 1.3%.

For `Cc1cccc(N2CCC(CC(=O)Nc3ccc4cc3CCc3cncc(c3)Nc3ncc(Cl)c(n3)N4)CC2)c1C#N` [Example A236, N-[6-Chloro-2,4,8,18,22-pentaazatetracyclo[14.3.1.1(3,7).1(9,13)]docosa-1(20),3(22),4,6,9(21),10,12,16,18-nonaen-12-yl]-2-[1-(2-cyano-3-methylphenyl)piperidin-4-yl]acetamide tris(trifluoroacetate)], the negative-log IC50 (pIC50) is 8.77 in assay [1] (setting [5]), 6.82 in assay [2] (setting [6]), under 6.40 in assay [3] (setting [7]) and under 6.40 at TYK2. The “ALK % of inhibition” value in assay [4] (setting [8]) stood at 16%.

For the molecule `CNC(=O)N1CCC(CC(=O)Nc2ccc3cc2CCc2cncc(c2)Nc2ncc(Cl)c(n2)N3)C1` (stereo not drawn) [Example A93, 3-(2-{[6-Chloro-2,4,8,18,22-pentaazatetracyclo[14.3.1.1(3,7).1(9,13)]docosa-1(20),3(22),4,6,9(21),10,12,16,18-nonaen-12-yl]amino}-2-oxoethyl)-N-methylpyrrolidine-1-carboxamide bis(trifluoroacetate)], the pIC50 in assay [1] (setting [5]) is 7.66; in assay [2] (setting [6]), 7.62; in assay [3] (setting [7]), 6.95; against TYK2 it was 7.37. The “ALK % of inhibition” value in assay [4] (setting [8]) is listed as 30%.

Regarding `Clc1cnc2nc1Nc1cccc(c1)CSc1cccc(c1)N2` [Example D2, 6-Chloro-15-thia-2,4,8,22-tetraazatetracyclo[14.3.1.1(3,7).1(9,13)]docosa-1(20),3(22),4,6,9(21),10,12,16,18-nonaene trifluoroacetate], the pIC50 in assay [1] (Table D1) was 7.72; in assay [2] (Table D1), 8.14; in assay [3] (Table D1) it was 7.89; against TYK2 (Table D1) it was 7.60; in assay [4] (Table D1, 90 μM ATP), 6.11.

As for `O=C(Nc1ccc2cc1CCc1cccc(c1)Nc1ncc(Cl)c(n1)N2)c1ccoc1` [Example B59, N-[6-Chloro-2,4,8,22-tetraazatetracyclo[14.3.1.1(3,7).1(9,13)]docosa-1(20), 3(22),4,6,9(21),10,12,16,18-nonaen-12-yl]-3-furamide trifluoroacetate], the pIC50 in assay [1] (Table B1) was 8.62; in assay [2] (Table B1) it was 8.62; in assay [3] (Table B1) it was 8.29; at TYK2 (Table B1), 8.28; in assay [4] (setting [9]), 6.15.

For the molecule `Clc1cnc2nc1Nc1cccc(c1)/C=C\c1cccc(c1)N2` [Example A1, (14Z)-6-Chloro-2,4,8,22-tetraazatetracyclo[14.3.1.1(3,7).1(9,13)]docosa-1(20),3(22),4,6,9(21),10,12,14,16,18-decaene trifluoroacetate], the negative logarithm of the IC50 (pIC50) in assay [1] (setting [5]) was 8.22; in assay [2] (setting [6]) it was 8.57; in assay [3] (setting [7]), 8.07; at TYK2, 8.33; in assay [4] (90 μM ATP) it was 6.38.

In the case of `O=C(Nc1ccsc1)Nc1ccc2cc1CCc1cccc(c1)Nc1ncc(Cl)c(n1)N2` [Example B89, N-[6-Chloro-2,4,8,22-tetraazatetracyclo[14.3.1.1(3,7).1(9,13)]docosa-1(20),3(22),4,6,9(21),10,12,16,18-nonaen-12-yl]-N′-3-thienylurea trifluoroacetate], the pIC50 is 8.62 in assay [1] (Table B1); 8.54 in assay [2] (Table B1); 7.40 in assay [3] (Table B1); 7.80 at TYK2 (Table B1); under 6.00 in assay [4] (setting [9]).

For the molecule `Cn1cncc1C(=O)N1CCC(CC(=O)Nc2ccc3cc2CCc2cncc(c2)Nc2ncc(Cl)c(n2)N3)CC1` [Example A134, N-[6-Chloro-2,4,8,18,22-pentaazatetracyclo[14.3.1.1(3,7).1(9,13)]docosa-1(20),3(22),4,6,9(21),10,12,16,18-nonaen-12-yl]-2-{1-[(1-methyl-1H-imidazol-5yl)carbonyl]piperidin-4-yl}acetamide bis(trifluoroacetate)], the negative-log IC50 (pIC50) in assay [1] (setting [5]) is 8.21; in assay [2] (setting [6]), 7.74; in assay [3] (setting [7]) it was 6.65; on TYK2, 7.60. For the same molecule, in assay [4] (setting [8]), the “ALK % of inhibition” value was 30%.

With `O=C(Nc1ccccc1)Nc1ccc2cc1CCc1cccc(c1)Nc1ncc(Cl)c(n1)N2` [Example B83, N-[6-Chloro-2,4,8,22-tetraazatetracyclo[14.3.1.1(3,7).1(9,13)]docosa-1(20), 3(22),4,6,9(21),10,12,16,18-nonaen-12-yl]-N′-phenylurea trifluoroacetate], the negative logarithm of the IC50 (pIC50) in assay [1] (Table B1) is 9.25; in assay [2] (Table B1), 8.77; in assay [3] (Table B1), 7.57; against TYK2 (Table B1), 8.28; in assay [4] (setting [9]), 6.11.

As to `O=C(Nc1ccc2cc1CCc1cccc(c1)Nc1ncc(Cl)c(n1)N2)C1CCC1` [Example B57, N-[6-Chloro-2,4,8,22-tetraazatetracyclo[14.3.1.1(3,7).1(9,13)]docosa-1(20), 3(22),4,6,9(21),10,12,16,18-nonaen-12-yl]cyclobutanecarboxamide hydrochloride], the pIC50 in assay [1] (Table B1) is 7.92; in assay [2] (Table B1), 8.28; in assay [3] (Table B1), 7.74; against TYK2 (Table B1), 7.41; in assay [4] (setting [9]), 5.66.

For the molecule `O=C(Nc1ccc2cc1CCc1cccc(c1)Nc1ncc(Cl)c(n1)N2)[C@@H]1CCNC1` [Example A45, (3R)—N-[6-chloro-2,4,8,22-tetraazatetracyclo[14.3.1.1(3,7).1(9,13)]docosa-1(20),3(22),4,6,9(21),10,12,16,18-nonaen-12-yl]pyrrolidine-3-carboxamide bis(trifluoroacetate)], the negative-log IC50 (pIC50) was 8.02 in assay [1] (setting [5]), 7.70 in assay [2] (setting [6]), 7.51 in assay [3] (setting [7]) and 7.41 on TYK2. Further, the “ALK % of inhibition” value in assay [4] (setting [8]) is 29%.

As to `O=C(Nc1ccc2cc1CCc1cncc(c1)Nc1ncc(Cl)c(n1)N2)N1CCC(c2ccccc2)CC1` [Example B314, N-[6-Chloro-2,4,8,18,22-pentaazatetracyclo[14.3.1.1(3,7).1(9,13)]docosa-1(20),3(22),4,6,9(21),10,12,16,18-nonaen-12-yl]-4-phenylpiperidine-1-carboxamide bis(trifluoroacetate)], the negative-log IC50 (pIC50) in assay [1] (Table B1) is 7.55; in assay [2] (Table B1) it was 6.97; in assay [3] (Table B1), under 6.40; against TYK2 (Table B1), 7.17. Besides, the “ALK % of inhibition” value in assay [4] (percentage inhibition of the example compound at a concentration of 500 nM or 1 mM (not specified which)) is given as 69%.

Take `CSc1ccccc1NC(=O)N1CCC(C(=O)Nc2ccc3cc2CCc2cccc(c2)Nc2ncc(Cl)c(n2)N3)CC1` [Example A39, N(4)-[6-Chloro-2,4,8,22-tetraazatetracyclo[14.3.1.1(3,7).1(9,13)]docosa-1(20),3(22),4,6,9(21),10,12,16,18-nonaen-12-yl]-N(1)-[2-(methylthio)phenyl]piperidine-1,4-dicarboxamide trifluoroacetate]: the negative-log IC50 (pIC50) is 7.72 in assay [1] (setting [5]), 7.44 in assay [2] (setting [6]), 7.18 in assay [3] (setting [7]) and 7.11 against TYK2. For the same molecule, the “ALK % of inhibition” value in assay [4] (setting [8]) turned out to be 39%.

For the molecule `N#Cc1c(Cl)cccc1N1CCC(CC(=O)Nc2ccc3cc2CCc2cncc(c2)Nc2ncc(Cl)c(n2)N3)CC1` [Example A222, 2-[1-(3-Chloro-2-cyanophenyl)piperidin-4-yl]-N-[6-chloro-2,4,8,18,22-pentaazatetracyclo[14.3.1.1(3,7).1(9,13)]docosa-1(20),3(22),4,6,9(21),10,12,16,18-nonaen-12-yl]acetamide tris(trifluoroacetate)], the pIC50 in assay [1] (setting [5]) was 8.49; in assay [2] (setting [6]), under 6.70; in assay [3] (setting [7]), under 6.70; at TYK2, under 6.70. Moreover, in assay [4] (setting [8]), the “ALK % of inhibition” value is given as 5.6%.
